Experimental data published in patent publication US20240131356A1, “COMBINATION OF INTRACELLULAR AND EXTRACELLULAR PHOTOSENSITIZERS FOR TREATMENT OF BACTERIAL INFECTION” (priority 2021, published 2024).
Where two headings read alike, the source gives them in different places.

System: hrtAB promoter (HssRS activation; CgoX activation)
Assay: XylE colorimetric reporter assay (phrt.xylE), activation of HssRS / hrtAB expression
Format: cell-based, Staphylococcus aureus strain Newman
Conditions: for Specifc Activity @ 30 μM: 30 μM compound, XylE activity normalized to protein; for Specifc Activity @ 30 μM / Specifc Activity (nMol/min*mg), data collected at 10 uM: 6 h subculture; for Specifc Activity (nMol/min*mg), data collected at 10 uM: footnote a: data collected at 10 uM; for XylE activity in comparison to '8882 at 10 μM: six-hour exposure (FIG. 2A); for XylE activity in comparison to '8882 at 30 μM: six-hour exposure (FIG. 2B); for EC50: Staphylococcus aureus, NEWMAN; for XylE activity (ability to activate HssRS) in comparison to '8882: dose not stated
Procedure: To maximize the production of coproporphyrin III and thereby increase blue-light mediated killing of S. aureus, synthesized analogs of VU0038882 were tested. To determine the relative efficacy of each analog, a Newman strain of S. aureus, transformed with the phrt.xylE (11) reporter vector was used. This reporter allows for colorimetric assessment of intracellular heme production. To perform the assay, each individual analog was added to 3 mL of TSB+10 μg/mL chloramphenicol to reach a concentration of 30 μM, and then 700 μL of this newly made 30 μM solution was added to 1.3 mL of remaining TSB+10 μg/mL chloramphenicol media to create the 10 μM concentration. Either 10 μM or 30 μM concentrations of compounds in medium were then aliquoted into three 0.5 mL replicate tubes. Three separate 16- to 18-hour overnight subcultures from isolated colonies were back-diluted 1:100 into the tubes creating three biological replicates and were subcultured for 6 hours at 37° C. and 180 rpm. After incubation, the cells were pelleted at 16,400 g for 5 minutes and the supernatant aspirated before washing with 0.5 mL of 20 mM potassium phosphate wash buffer. After pelleting the cells again at 16,400 g for 5 minutes the wash buffer was aspirated, and the pellets were stored at −80° C. until further use.
When the cells were ready to be lysed and data collected, samples were removed from the −80° C. freezer, allowed to thaw, and resuspended in 150 μL of lysis buffer (100 mM potassium phosphate pH=8.0, 10% v/v acetone, 20 μg/mL lysostaphin) before incubation in a 37° C. bead bath for 20 minutes and then cooled for 5 minutes on ice. The samples were then centrifuged at 16,400 g and 4° C. for 30 minutes to separate the pellet from the lysate, which was then placed into a 96-well microtiter plate and kept on ice. The lysate from each sample was pipetted into 20 μL aliquots on a round-bottom or flat-bottom 96-well plate on ice. The round bottom plate was labeled for bicinchoninic acid assay (BCA) protein content analysis, and 10 μL of BCA standards was added to extra wells on the plate. Protein quantification was performed using a Pierce BCA Protein Assay Kit as per the manufacturer's instructions. While the BCA plate was in the incubator, the flat-bottom plate was prepared by thawing 1 M catechol on ice and making 100 mM potassium phosphate (pH=8.0) assay buffer. After preparing a kinetic read at 375 nm for 10 minutes with a minimal interval between reads, the catechol was diluted 1:1,000 into the assay buffer and quickly dispensed into a sterile basin, then 200 μL of the solution was pipetted into each well using a multichannel pipette. All data were exported into Excel software (Microsoft) and analyzed for specific activity of each compound and activity relative to VU0038882 controls.
After 219 analogs had been screened, the compounds with the best percent VU0038882 activity were tested again following the same protocol, but with twelve replicates per concentration with data expressed as averages ±the standard deviation (SD). Additionally, the top-performing compounds were tested using the XylE protocol with a concentration gradient to determine their half maximal effective concentration (EC50) values.
Photosensitizer-conjugated antibodies expose bacteria to reactive oxygen species (ROS) externally, but this treatment can be paired with small molecule treatment to generate ROS internally via heme biosynthesis pathway intermediates. To discover new compounds capable of activating CgoX and/or displaying less toxicity to eukaryotic cells, a medicinal chemistry campaign was initatied based on systematic alternation of the '8882 structure. Each new analog was tested for the ability to activate HssRS using the previously described XylE colorimetric assay that employs a reporter construct in which the hrtAB promoter is fused to a xylE reporter gene. […]

SMILES | Specifc Activity @ 30 μM [nmol/min/mg] | further results
Cc1ccc(-c2cc(-c3ccc4ccccc4c3O)n[nH]2)o1 ['9624, 2-(5-(5-Methylfuran-2-yl)-1H-pyrazol-3-yl)naphthalen-1-ol] | 1.152 ± 0.382 | –
Cc1c(-c2ccccc2O)n[nH]c1-c1ccco1 [Compound 0394, 2-(5-(Furan-2-yl)-4-methyl-1H-pyrazol-3-yl)phenol] | 0.0287 ± 0.0198 | –
Oc1c(-c2cc(-c3cnco3)[nH]n2)ccc2ccccc12 [′0071, 2-(5-(Oxazol-5-yl)-1H-pyrazol-3-yl)naphthalen-1-ol] | – | Specifc Activity (nMol/min*mg), data collected at 10 uM: 1.152 ± 0.263^a nMol/min*mg
CC(C)Nc1cc(-c2ccc3ccccc3c2O)n[nH]1 [′0457, 2-(5-(isopropylamino)-1H-pyrazol-3-yl)naphthalen-1-ol] | 0.5082 ± 0.770 | –
Oc1c(-c2n[nH]c(-c3ccco3)n2)ccc2ccccc12 [′0485, 2-(5-(Furan-2-yl)-1H-1,2,4-triazol-3-yl)naphthalen-1-ol] | 1.697 ± 0.335 | –
Oc1c(-c2nnc(-c3ccco3)o2)ccc2ccccc12 [′0527, 2-(5-(furan-2-yl)-1,3,4-oxadiazol-2-yl)naphthalen-1-ol] | 0.2270 ± 0.0147 | –
Oc1c(-c2n[nH]c3c2CCc2ccoc2-3)ccc2ccccc12 [′1790, 2-(4,5-Dihydro-2H-furo[3,2-g]indazol-3-yl)naphthalen-1-ol] | 4.146 ± 2.397 | –
Cc1nn(C)c(C)c1-c1cc(-c2ccc3ccccc3c2O)n[nH]1 [′2069, 2-(1′,3′,5′-trimethyl-1′H,2H-[3,4′-bipyrazol]-5-yl)naphthalen-1-ol] | 10.46 ± 1.54 | XylE activity in comparison to '8882 at 10 μM: weaker activity compared to '8882; XylE activity in comparison to '8882 at 30 μM: equivalent; EC50: 28.5 µM; EC50 (read-out: logEC50 (converted)): 28.5 µM
Oc1cc2ccccc2cc1-c1cc(-c2ccco2)[nH]n1 [′3918, 3-(5-(Furan-2-yl)-1H-pyrazol-3-yl)naphthalen-2-ol] | 0.2543 ± 0.127 | –
Nc1ncccc1-c1cc(-c2ccco2)[nH]n1 [′3989, 3-(5-(Furan-2-yl)-1H-pyrazol-3-yl)pyridin-2-amine] | 0.2491 ± 0.2546 | –
Oc1ccc(F)cc1-c1cc(-c2ccco2)[nH]n1 [′4082, 4-Fluoro-2-(5-(furan-2-yl)-1H-pyrazol-3-yl)phenol] | 5.884 ± 1.88 | –
Oc1cc(F)ccc1-c1cc(-c2ccco2)[nH]n1 [′4083, 5-Fluoro-2-(5-(furan-2-yl)-1H-pyrazol-3-yl)phenol] | 28.76 ± 9.41 | XylE activity in comparison to '8882 at 10 μM: activity similar to '8882; XylE activity in comparison to '8882 at 30 μM: activity similar to '8882; EC50: 20.9 µM; EC50 (read-out: logEC50 (converted)): 20.9 µM
Cn1ccc(-c2cc(-c3ccc4ccccc4c3O)n[nH]2)n1 [′6699, 2-(1-Methyl-1H,2′H-[3,3′-bipyrazol]-5′-yl)naphthalen-1-ol] | 5.138 ± 4.82 | –
Cn1ncc2cc(-c3cc(-c4ccc5ccccc5c4O)n[nH]3)ccc21 [′6700, 2-(5-(1-methyl-1H-indazol-5-yl)-1H-pyrazol-3-yl)naphthalen-1-ol] | 24.26 ± 3.69 | EC50: 8.18 µM; EC50 (read-out: logEC50 (converted)): 8.18 µM; XylE activity (ability to activate HssRS) in comparison to '8882: roughly equivalent to '8882
c1ccc(-c2cc(-c3ccco3)[nH]n2)nc1 [′7092, 2-(5-(Furan-2-yl)-1H-pyrazol-3-yl)pyridine] | 0.2374 ± 0.1354 | –
Oc1ncccc1-c1cc(-c2ccco2)[nH]n1 [′7268, 3-(5-(Furan-2-yl)-1H-pyrazol-3-yl)pyridin-2-ol] | 0.4793 ± 1.2179 | –
Cn1nccc1-c1cc(-c2ccc3ccccc3c2O)n[nH]1 [′8233, 2-(2′-Methyl-2H,2′H-[3,3′-bipyrazol]-5-yl)naphthalen-1-ol] | 0.5053 ± 0.294 | –
C#Cc1cc(-c2ccc3ccccc3c2O)n[nH]1 [′9128, 2-(5-Ethynyl-1H-pyrazol-3-yl)naphthalen-1-ol] | – | Specifc Activity (nMol/min*mg), data collected at 10 uM: 0.442 ± 0.089^a nMol/min*mg
Oc1c(-c2cc(-c3cc4ccccc4s3)[nH]n2)ccc2ccccc12 [′9130, 2-(5-(Benzo[b]thiophen-2-yl)-1H-pyrazol-3-yl)naphthalen-1-ol] | 1.012 ± 0.064 | –
Oc1c(-c2cc(-c3ccncc3)[nH]n2)ccc2ccccc12 [′9131] | 0.437 ± 0.26 | –
Oc1c(-c2cc(-c3ccsc3)[nH]n2)ccc2ccccc12 [′9132, 2-(5-(thiophen-3-yl)-1H-pyrazol-3-yl)naphthalen-1-ol] | 12.82 ± 1.12 | EC50: 26.2 µM; EC50 (read-out: logEC50 (converted)): 26.2 µM; XylE activity (ability to activate HssRS) in comparison to '8882: lost some activity compared with '8882
Oc1c(-c2cc(-c3cc4ccccc4o3)[nH]n2)ccc2ccccc12 [′9134, 2-(5-(Benzofuran-2-yl)-1H-pyrazol-3-yl)naphthalen-1-ol] | 0.130 ± 0.142 | –
Oc1c(-c2cc(C3CCCO3)[nH]n2)ccc2ccccc12 (stereo not shown) [′9437, 2-(5-(tetrahydrofuran-2-yl)-1H-pyrazol-3-yl)naphthalen-1-ol] | 0.088 ± 0.041 | –
Cc1ccc(-c2cc(-c3ccc4ccccc4c3O)n[nH]2)s1 [′9625, 2-(5-(5-Methylthiophen-2-yl)-1H-pyrazol-3-yl)naphthalen-1-ol] | 8.023 ± 1.065 | EC50: 13.1 µM; EC50 (read-out: logEC50 (converted)): 13.1 µM
Oc1c(-c2cc(-c3cccs3)[nH]n2)ccc2ccccc12 [′9626, 2-(5-(Thiophen-2-yl)-1H-pyrazol-3-yl)naphthalen-1-ol] | 28.86 ± 2.66 | XylE activity in comparison to '8882 at 10 μM: performed well; XylE activity in comparison to '8882 at 30 μM: comparable to '8882; EC50: 19.9 µM; EC50 (read-out: logEC50 (converted)): 19.9 µM
Cc1csc(-c2cc(-c3ccc4ccccc4c3O)n[nH]2)c1 [′9627, 2-(5-(4-Methylthiophen-2-yl)-1H-pyrazol-3-yl)naphthalen-1-ol] | 10.15 ± 3.65 | –
Cc1cnccc1-c1cc(-c2ccc3ccccc3c2O)n[nH]1 [′9767, 2-(5-(3-Methylpyridin-4-yl)-1H-pyrazol-3-yl)naphthalen-1-ol] | – | Specifc Activity (nMol/min*mg), data collected at 10 uM: 1.393 ± 0.392^a nMol/min*mg
C/C=C/c1cc(-c2ccc3ccccc3c2O)n[nH]1 [′9768, (E)-2-(5-(Prop-1-en-1-yl)-1H-pyrazol-3-yl)naphthalen-1-ol] | 6.951 ± 0.983 | –
Cc1sccc1-c1cc(-c2ccc3ccccc3c2O)n[nH]1 [′9769, 2-(5-(2-Methylthiophen-3-yl)-1H-pyrazol-3-yl)naphthalen-1-ol] | 4.922 ± 1.261 | –
